In patent US9073874B2, “Cyclic N,N′-diarylthioureas and N,N′-diarylureas-androgen receptor antagonists, anticancer agent, method for preparation and use thereof” (priority 2010, dated 2015):

Tests used:
Y (non-selective) = test: competitive radioligand binding assay, Y (non-selective) (agonist radioligand); conditions: 10 μM
BZD (central) = test: competitive radioligand binding assay, BZD (central) (agonist radioligand); conditions: 10 μM
[1] = biological target: norepinephrine transporter (h) (Homo sapiens, UniProt P23975); test: competitive radioligand binding assay, norepinephrine transporter (h) (antagonist radioligand)
B2 (h) = B2 (h) (Homo sapiens, UniProt P30411); test: competitive radioligand binding assay, B2 (h) (agonist radioligand)
[2] = tested on: Ca2+ channel (L, diltiazem site) (benzothiazepines); test: competitive radioligand binding assay, Ca2+ channel (L, diltiazem site) (benzothiazepines) (antagonist radioligand); conditions: 10 μM
IP (PGI2) (h) = IP (PGI2) (h) (Homo sapiens, UniProt P43119); test: competitive radioligand binding assay, IP (PGI2) (h) (agonist radioligand)
opioid (non-selective) = test: competitive radioligand binding assay, opioid (non-selective) (antagonist radioligand); conditions: 10 μM
5-HT transporter (h) = 5-HT transporter (h) (Homo sapiens, UniProt P31645); test: competitive radioligand binding assay, 5-HT transporter (h) (antagonist radioligand)
PR (h) = PR (h) (Homo sapiens, UniProt P06401); test: competitive radioligand binding assay, PR (h) (agonist radioligand)
NK3 (h) = NK3 (h) (Homo sapiens, UniProt P29371); test: competitive radioligand binding assay, NK3 (h) (antagonist radioligand)
CCK2 (CCKB) (h) = CCK2 (CCKB) (h) (Homo sapiens, UniProt P32239); test: competitive radioligand binding assay, CCK2 (CCKB) (h) (agonist radioligand)
N neuronal α4β2 (h) = N neuronal α4β2 (h) (Homo sapiens, UniProt P17787+P43681); test: competitive radioligand binding assay, N neuronal α4β2 (h) (agonist radioligand)
BLT1 (LTB4) (h) = BLT1 (LTB4) (h) (Homo sapiens, UniProt Q15722); test: competitive radioligand binding assay, BLT1 (LTB4) (h) (agonist radioligand)
PCP = test: competitive radioligand binding assay, PCP (antagonist radioligand); conditions: 10 μM
PPARγ (h) = PPARγ (h) (Homo sapiens, UniProt P37231); test: competitive radioligand binding assay, PPARγ (h) (agonist radioligand)
M (non0selective) = test: competitive radioligand binding assay, M (non0selective) (antagonist radioligand); conditions: 10 μM
D1 (h) = D1 (h) (Homo sapiens, UniProt P21728); test: competitive radioligand binding assay, D1 (h) (antagonist radioligand)
P2X = test: competitive radioligand binding assay, P2X (agonist radioligand); conditions: 10 μM
[3] = biological target: choline transporter (CHT1) (h) (Homo sapiens, UniProt Q9GZV3); test: competitive radioligand binding assay, choline transporter (CHT1) (h) (antagonist radioligand)
D3 (h) = D3 (h) (Homo sapiens, UniProt P35462); test: competitive radioligand binding assay, D3 (h) (antagonist radioligand)
NOP (ORL1) (h) = NOP (ORL1) (h) (Homo sapiens, UniProt P41146); test: competitive radioligand binding assay, NOP (ORL1) (h) (agonist radioligand)
GR (h) = GR (h) (Homo sapiens, UniProt P04150); test: competitive radioligand binding assay, GR (h) (agonist radioligand)
CB2 (h) = CB2 (h) (Homo sapiens, UniProt P34972); test: competitive radioligand binding assay, CB2 (h) (agonist radioligand)
kainate = test: competitive radioligand binding assay, kainate (agonist radioligand); conditions: 10 μM
V2 (h) = V2 (h) (Homo sapiens, UniProt P30518); test: competitive radioligand binding assay, V2 (h) (agonist radioligand)
A1 (h) = A1 (h) (Homo sapiens, UniProt P30542); test: competitive radioligand binding assay, A1 (h) (antagonist radioligand)
A3 (h) = A3 (h) (Homo sapiens, UniProt P0DMS8); test: competitive radioligand binding assay, A3 (h) (agonist radioligand)
A2A (h) = A2A (h) (Homo sapiens, UniProt P29274); test: competitive radioligand binding assay, A2A (h) (agonist radioligand)
CCK1 (CCKA) (h) = CCK1 (CCKA) (h) (Homo sapiens, UniProt P32238); test: competitive radioligand binding assay, CCK1 (CCKA) (h) (agonist radioligand)
β2 (h) = β2 (h) (Homo sapiens, UniProt P07550); test: competitive radioligand binding assay, β2 (h) (agonist radioligand)
NMDA = test: competitive radioligand binding assay, NMDA (antagonist radioligand); conditions: 10 μM
KV channel = test: competitive radioligand binding assay, KV channel (antagonist radioligand); conditions: 10 μM
LnCAP cells = test: Inhibition of DHT-stimulated proliferation of LnCAP cells; type: cell-based, human
Description: The expression of PSA was measured in the culture medium 24 hours thereafter (FIG. 1). […] The LnCAP cells were cultured for a further 5 days and the number of viable cells was then calculated.
FIG. 2. Inhibition of DHT-stimulated proliferation of LnCAP cells.

NK2 (h) = NK2 (h) (Homo sapiens, UniProt P21452); test: competitive radioligand binding assay, NK2 (h) (agonist radioligand)
CYP 3A = CYP 3A induction assay; type: in vitro ADME
MC4 (h) = MC4 (h) (Homo sapiens, UniProt P32245); test: competitive radioligand binding assay, MC4 (h) (agonist radioligand)
[4] = tested on: T1, GABA (non-selective) receptors; type: binding
T1 construct: other: 10 μM; GABA (non-selective) (agonist radioligand); activity towards GABA (non-selective) receptors (in words)

ETB (h) = ETB (h) (Homo sapiens, UniProt P24530); test: competitive radioligand binding assay, ETB (h) (agonist radioligand)
D2S (h) = D2S (h) (Homo sapiens, UniProt P14416); test: competitive radioligand binding assay, D2S (h) (antagonist radioligand)
NK1 (h) = NK1 (h) (Homo sapiens, UniProt P25103); test: competitive radioligand binding assay, NK1 (h) (agonist radioligand)
H3 (h) = H3 (h) (Homo sapiens, UniProt Q9Y5N1); test: competitive radioligand binding assay, H3 (h) (agonist radioligand)
[5] = tested on: Ca2+channel (L, verapamil site) (phenylalkylamine); test: competitive radioligand binding assay, Ca2+channel (L, verapamil site) (phenylalkylamine) (antagonist radioligand); conditions: 10 μM
α1 (non-selective) = test: competitive radioligand binding assay, α1 (non-selective (antagonist radioligand)); conditions: 10 μM

CNC(=O)c1ccc(N2C(=S)N(c3ccc(C#N)c(C(F)(F)F)c3)C(=O)[C@]23CCOC3)cc1F [(R)-1, 4-[(R)-3-(4-cyano-3-trifluoromethyl-phenyl)-4-oxo-2-thioxo-7-oxa-1,3-diaza-spiro[4.4]non-1-yl]-2-fluoro-N-methyl-benzamide] was tested, and the “% Inhibition” value (Y (non-selective)) was −16.4%, the “% Inhibition” value (BZD (central)) was −16.6% and the inhibition at 10 µM [1] was -1.1%. For the same molecule, the inhibition at 10 µM (B2 (h)) was -5.2%, the “% Inhibition” value [2] was −23.6% and the inhibition at 10 µM (IP (PGI2) (h)) was -7.3%. The “% Inhibition” value (opioid (non-selective)) was 19.3%, the inhibition at 10 µM (5-HT transporter (h)) was 43.5% and the inhibition at 10 µM (PR (h)) was 66.6%. The inhibition at 10 µM (NK3 (h)) was -4.5%, the inhibition at 10 µM (CCK2 (CCKB) (h)) was -2.5% and the inhibition at 10 µM (N neuronal α4β2 (h)) was 0.2%. The inhibition at 10 µM (BLT1 (LTB4) (h)) was 15.9%, the “% Inhibition” value (PCP) was 0.5% and the inhibition at 10 µM (PPARγ (h)) was -19.2%. For the same molecule, the “% Inhibition” value (M (non0selective)) was −8.9%, the inhibition at 10 µM (D1 (h)) was -2.4% and the “% Inhibition” value (P2X) was 28.0%. For the same molecule, the inhibition at 10 µM [3] was 9.7%, the inhibition at 10 µM (D3 (h)) was -4.8% and the inhibition at 10 µM (NOP (ORL1) (h)) was -1.7%. For the same molecule, the inhibition at 10 µM (GR (h)) was 29.4%, the inhibition at 10 µM (CB2 (h)) was 9.1% and the “% Inhibition” value (kainate) was 13.1%. For the same molecule, the inhibition at 10 µM (V2 (h)) was 1.5%, the inhibition at 10 µM (A1 (h)) was -11.8% and the inhibition at 10 µM (A3 (h)) was -4.9%. The inhibition at 10 µM (A2A (h)) was 8.1%, the inhibition at 10 µM (CCK1 (CCKA) (h)) was 10.6% and the inhibition at 10 µM (β2 (h)) was -8%. For the same molecule, the “% Inhibition” value (NMDA) was 2.0%, the “% Inhibition” value (KV channel) was −10.1% and the IC50 (LnCAP cells; Homo sapiens, LNCaP, 120 h, read-out: IC50, inhibition of DHT-induced cell proliferation) was 30 nM. For the same molecule, the “fold more efficient than III in inhibiting DHT-induced cell proliferation” value (LnCAP cells; LnCAP cells, versus III) was “around 8 fold”, the “fold more efficient than Ia in inhibiting DHT-induced cell proliferation” value (LnCAP cells; LnCAP cells, versus Ia) was “around 6 fold” and the inhibition at 10 µM (NK2 (h)) was -8.7%. The “Positive control, % (CYP 3A induction)” value (CYP 3A; Concentration 1 μM) was 0.0 ± 2.0%, the “Positive control, % (CYP 3A induction)” value (CYP 3A; Concentration 10 μM) was 42.0 ± 6.1% and the inhibition at 10 µM (MC4 (h)) was -3.1%. The “% Inhibition” value ([4]; 10 μM, GABA (non-selective) (agonist radioligand)) was 7.1%, the “activity towards GABA (non-selective) receptors (in words)” value ([4]; Table 1, Target 24) was “practically inactive” and the inhibition at 10 µM (ETB (h)) was -1.7%. It also gave an inhibition at 10 µM (D2S (h)) of -8.1%, an inhibition at 10 µM (NK1 (h)) of 14.7% and an inhibition at 10 µM (H3 (h)) of -13%. The “% Inhibition” value [5] was 4.0% and the “% Inhibition” value (α1 (non-selective)) was 0.7%.
